The values below are quoted from earlier work in patent US20040186084A1, “Triamcinolone formulations and methods for their preparation and use” (Akorn, Inc., priority 2003, published 2004).

The structures appear in SMILES notation.

Turning to `CC1(C)O[C@@H]2C[C@H]3[C@@H]4CCC5=CC(=O)C=C[C@]5(C)[C@@]4(F)[C@@H](O)C[C@]3(C)[C@]2(C(=O)CO)O1` [triamcinolone acetonide, (11β,16α)-9-fluoro-11,21-dihydroxy-16,17-[1-methylethylidenebis(oxy)]pregna-1,-4-diene-3,20-dione], the “solubility in organic solvents” value (methanol, acetone and ethyle acetate) is recorded as “sparingly soluble”. Besides, for the setting “water”, the solubility in water result is “relatively insoluble”.
